In patent US5952366A, “Alkyl ether analogs of chlorins having an N-substituted imide ring” (Health Research, Inc., priority 1998, dated 1999):

Assays:
[1] = test system: Radiation induced fibrosarcoma (RIF) tumors; assay: In vivo tumor response (photodynamic therapy, RIF tumors in C3H mice); conditions: for Tumor Response (%): 705 nm, 135 J/cm^2, 24 h post injection
Procedure: Radiation induced fibrosarcoma (RIF) tumors, were implanted subcutanaceously into the axilla of 5-7 week old female C3H mice. When tumors grew to about 5 mm in diameter, the mice were injected with various doses of the photosensitizers. The mice (6 mice per group) were restrained in aluminum holders and each tumor illuminated with 135 J/cm^2 of light from a laser tuned at the longest wavelength absorption maximum of the photosensitizers at 705 nm. The percentage of short term control was recorded daily.
*Six mice/group (RIF tumor). 1.0 μmol/kg. 705 nm, 135J/cm^2 (24 h

[2] = human, in vivo; cited from earlier work
[3] = 1.0 μmol/kg, days 1-2, six mice/group

Compound | Tumor Response (%) ([1]; 1.0 μmol/kg, day 7) | Tumor Response (%) ([1]; 1.0 μmol/kg, day 14) | Tumor Response (%) ([1]; 1.0 μmol/kg, day 21) | Tumor Response (%) ([1]; 1.0 μmol/kg, day 30) | Tumor Response (%) ([1]; 1.0 μmol/kg, day 90) | Tumor Response (%) [1, 3] [%] | also measured
CCCCCCCOC(C)c1c(C)c2cc3nc(c4c5[nH]c(cc6nc(cc1[nH]2)C(C)=C6CC)c(C)c5C(=O)N(CCCCCC)C4=O)[C@@H](CCC(=O)OC)[C@@H]3C (stereo partly drawn) [R^1 = heptyl, R^2 = hexyl, heptyl ether analog of N-hexyl purpurin imide] | 100 | 100 | 100 | 100 | 83 | 100 | Tumor Response (%) ([1]; 0.25 μmol, day 7): 60%; Tumor Response (%) ([1]; 0.25 μmol, day 14): 20%; Tumor Response (%) ([1]; 0.25 μmol, day 21): 20%; Tumor Response (%) ([1]; 0.25 μmol, day 30): 20%; Tumor Response (%) ([1]; 0.25 μmol, day 90): 20%; Tumor Response (%) ([1]; 0.25 μmol, days 1-2): 100%; effectiveness in this series ([1]; dose of 1.0 μmol/kg): most effective
CCCOC(C)c1c(C)c2cc3nc(c4c5[nH]c(cc6nc(cc1[nH]2)C(C)=C6CC)c(C)c5C(=O)N(CCC)C4=O)[C@@H](CCC(=O)OC)[C@@H]3C (stereo partly drawn) [R^1 = propyl, R^2 = propyl] | 33 | 17 |  |  |  | 100 | 
CCCCCCOC(C)c1c(C)c2cc3nc(c4c5[nH]c(cc6nc(cc1[nH]2)C(C)=C6CC)c(C)c5C(=O)N(CCC)C4=O)[C@@H](CCC(=O)OC)[C@@H]3C (stereo partly drawn) [R^1 = hexyl, R^2 = propyl] | 83 | 83 | 50 | 33 | 33 | 100 | Tumor Response (%) ([1]; 0.5 μmol, day 7): 66%; Tumor Response (%) ([1]; 0.5 μmol, day 14): 33%; Tumor Response (%) ([1]; 0.5 μmol, day 21): 17%; Tumor Response (%) ([1]; 0.5 μmol, day 30): 17%; Tumor Response (%) ([1]; 0.5 μmol, day 90): 17%; Tumor Response (%) ([1]; 0.5 μmol, days 1-2): 100%
Photofrin |  |  |  |  |  |  | normal tissue clearance [2]: lacks rapid normal tissue clearance; skin photosensitization [2]: photosensitizes the skin
